Measured values published in the NIST ThermoML archive (doi:10.1016/j.jct.2006.07.002).
Numbers after ± are expanded uncertainties.

Experiments:
[1] = refractive index (Na D-line) (dimensionless); settings: 293.15 K; 101.33 kPa; Liquid; Standard Abbe refractometry
[2] = 293.15 K; 101.33 kPa; Liquid
[3] = Boiling temperature at pressure P; settings: Liquid, Distillation

refractive index [1] | mass density [2] [kg/m3] | Boiling temperature at pressure P ([3]; 1.733 kPa) [°C] | Boiling temperature at pressure P ([3]; 101.33 kPa) [°C] | Compound
1.42825 ± 0.0007 | 1061.72 ± 0.67 | 115 ± 1 | – | COC(=O)CCCCC(=O)OC [dimethyl 1,6-hexanedioate]
1.3975 ± 0.0007 | 952.8 ± 0.58 | – | – | CCCC(=O)O [butanoic acid]
1.41969 ± 0.00078 | 1119.13 ± 2.3 | – | 196.1 ± 0.2 | COC(=O)CCC(=O)OC [dimethyl 1,4-butanedioate]
1.42454 ± 0.0007 | 1087.67 ± 0.76 | – | 214.2 ± 0.2 | COC(=O)CCCC(=O)OC [dimethyl pentanedioate]
